# Like-named read-outs stand apart in the source and are kept apart here.
# Test system: subjects with PAD
# Description: A resting 12-lead ECG printout with the subject in supine position was obtained at the time points listed in Table 1-Schedule of Assessments. All ECGs were assessed by the PI or qualified designee for clinical significance of any abnormalities or changes and documented on the ECG source document. Any clinically significant abnormalities that occured after the first dose of sodium nitrite was recorded as AEs on the eCRF. The 12-lead ECG was obtained immediately following vitals, with the exception of the Visit 1 Randomization day ECG which was collected prior to dosing.
# [1] = 40-mg, Visit 1 (prior to dosing)
# [2] = 80-mg, Visit 1 (prior to dosing)
# [3] = 80-mg, Visit 8 (after 6-day dose escalation)
# [4] = 160-mg, Visit 8 (after 6-day dose escalation)
structure (smiles),measurement,setting,value
O=NO [sodium nitrite],ECG Heart Rate,[1],71.4 +/− 12.7 beats/minute
same,QTcB interval,[1],415.9 ± 49.0 ms
same,QTcF interval,[1],404.8 ± 44.9 ms
same,ECG Heart Rate,"40-mg, Visit 5 (Day 28)",72.2 +/− 14.8 beats/minute
same,QTcB interval,"40-mg, Visit 5 (Day 28)",430.1 ± 34.8 ms
same,QTcF interval,"40-mg, Visit 5 (Day 28)",417.7 ± 24.0 ms
same,ECG Heart Rate,[2],62.7 +/− 10.7 beats/minute
same,QTcB interval,[2],422.3 ± 34.0 ms
same,QTcF interval,[2],419.9 ± 30.5 ms
same,ECG Heart Rate,"80-mg, Visit 5 (Day 28)",65.5 +/− 11.9 beats/minute
same,QTcB interval,"80-mg, Visit 5 (Day 28)",411.6 ± 49.7 ms
same,QTcF interval,"80-mg, Visit 5 (Day 28)",406.2 ± 46.2 ms
same,ECG Heart Rate,[3],74.3 +/− 10.0 beats/minute
same,QTcB interval,[3],423.2 ± 4.03 ms
same,QTcF interval,[3],409.5 ± 34.3 ms
same,ECG Heart Rate,[4],64.7 +/− 10.0 beats/minute
same,QTcB interval,[4],427.7 ± 31.9 ms
same,QTcF interval,[4],422.8 ± 27.9 ms
